Measurements reported in patent US20050197338A1, “Substituted pyrazole urea compounds for the treatment of inflammation” (priority 2003, published 2005).
Where a name gives a salt, the structure may show the parent alone.

Molecular target: T1, human IKK-2 (rhIKK-2 homodimer) (Homo sapiens, UniProt O14920)
T1 construct: FLAG (DYKDDDDKD) (C); made in house; host or cells: insect cells (baculovirus, pFastBac)
T1 sequence (O14920 1-756): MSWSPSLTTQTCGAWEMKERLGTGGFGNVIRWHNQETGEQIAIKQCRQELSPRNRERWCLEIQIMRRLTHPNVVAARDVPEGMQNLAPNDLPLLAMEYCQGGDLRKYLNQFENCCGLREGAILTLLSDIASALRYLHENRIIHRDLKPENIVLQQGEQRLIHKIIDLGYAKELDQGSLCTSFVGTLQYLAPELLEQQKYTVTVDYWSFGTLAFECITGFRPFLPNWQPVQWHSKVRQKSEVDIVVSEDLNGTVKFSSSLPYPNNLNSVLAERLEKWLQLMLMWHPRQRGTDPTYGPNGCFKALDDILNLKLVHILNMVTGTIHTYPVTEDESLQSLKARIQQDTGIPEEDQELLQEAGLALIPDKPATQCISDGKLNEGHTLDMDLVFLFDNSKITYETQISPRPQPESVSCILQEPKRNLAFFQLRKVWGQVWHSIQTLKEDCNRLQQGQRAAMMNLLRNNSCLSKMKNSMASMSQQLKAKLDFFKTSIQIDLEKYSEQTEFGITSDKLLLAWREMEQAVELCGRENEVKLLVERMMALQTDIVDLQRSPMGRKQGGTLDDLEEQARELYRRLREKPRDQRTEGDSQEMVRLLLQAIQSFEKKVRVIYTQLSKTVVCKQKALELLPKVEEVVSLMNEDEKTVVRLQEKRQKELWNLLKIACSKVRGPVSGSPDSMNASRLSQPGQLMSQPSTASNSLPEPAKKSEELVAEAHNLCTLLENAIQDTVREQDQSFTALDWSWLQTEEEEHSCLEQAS
Assay: IKK-2 Resin Enzyme Assay (Human IKK-2 Enzyme Assay)
Assay type: biochemical
Conditions: human IKK-2, resin enzyme assay; read-out: IC50 (μM) hIKK-2
Source text: Materials: SAM^2™96 Biotin capture plates were from Promega. Anti-FLAG affinity resin, FLAG-peptide, NP-40 (Nonidet P-40), BSA, ATP, ADP, AMP, LPS (E. coli serotype 0111:B4), and dithiothreitol were obtained from Sigma Chemicals. Antibodies specific for NEMO (IKK-γ) (FL-419), IKK-1 (H-744), IKK-2(H-470) and IκBa(C-21) were purchased from Santa Cruz Biotechnology. Ni-NTA resin was purchased from Qiagen. Peptides were purchased from American Peptide Company. Protease inhibitor cocktail tablets were from Boehringer Mannheim. Sephacryl S-300 column was from Pharmacia LKB Biotechnology. Centriprep-10 concentrators with a molecular weight cutoff of 10 kDa and membranes with molecular weight cut-off of 30 kDa were obtained from Amicon. [γ-^33P] ATP (2500 Ci/mmol) and [γ-^32P] ATP (6000 Ci/mmol) were purchased from Amersham. The other reagents used were of the highest grade commercially available.
Cloning and Expression: cDNAs of human IKK-1 and IKK-2 were amplified by reverse transcriptase-polymerase chain reaction from human placental RNA (Clonetech). hlKK-1 was subcloned into pFastBac HTa (Life Technologies) and expressed as N-terminal His6-tagged fusion protein. The hlKK-2 cDNA was amplified using a reverse oligonucleotide primer which incorporated the peptide sequence for a FLAG-epitope tag at the C-terminus of the IKK-2 coding region (DYKDDDDKD). The hlKK-2:FLAG cDNA was subcloned into the baculovirus vector pFastBac. The rhIKK-2 ([…]) mutant was constructed in the same vector used for wild type rhIKK-2 using a QuikChange™ mutagenesis kit (Stratagene). Viral stocks of each construct were used to infect insect cells grown in 40 L suspension culture. […] Cell lysates were stored at −80° C. until purification of the recombinant proteins was undertaken as described below.
Enzyme Isolation: All purification procedures were carried out at 4° C. unless otherwise noted. Buffers used are: buffer A: 20 mM Tris-HCl, pH 7.6, containing 50 mM NaCl, 20 mM NaF, 20 mM β-Glycerophosphate, 500 μM sodium orthovanadate, 2.5 mM metabisulfite, 5 mM benzamidine, 1 mM EDTA, 0.5 mM EGTA, 10% glycerol, 1 mM DTT, 1× Complete™ protease inhibitors; buffer B: same as buffer A, except 150 mM NaCl, and buffer C: same as buffer A, except 500 mM NaCl.
Isolation of rhIKK-2 homodimer: A 10-liter culture of baculovirus-expressing IKK-2 tagged with FLAG peptide was centrifuged and the cell pellet (MOI=0.1 and 1=72 h) was re-suspended in buffer A. These cells were microfluidized, and centrifuged at 100,000×g for 45 min. Supernatant was passed over a G-25 column equilibrated with Buffer A. Protein peak was collected and incubated with anti-FLAG affinity resin on a rotator overnight in buffer B. The resin was washed in batch with 10-15 bed volumes of buffer C. Washed resin was poured into a column and rhIKK-2 homodimer was eluted using 5 bed volumes of buffer B containing FLAG peptide. 5 mM DTT, 0.1% NP-40 and BSA (concentrated to 0.1% in final amount) was added to the eluted enzyme before concentrating in using an Amicon membrane with a molecular weight cut-off of 30 kDa. Enzyme was aliquoted and stored at −80° C.
IKK-2 Resin Enzyme Assay: IKK-2 kinase activity was measured using a biotinylated IκBα peptide (Gly-Leu-Lys-Lys-Glu-Arg-Leu-Leu-Asp-Asp-Arg-His-Asp-Ser32-Gly-Leu-Asp-Ser36-Met-Lys-Asp-Glu-Glu) (American Peptide Co.). 20 μL of the standard reaction mixture contained 5 μM biotinylated IκBα peptide, 0.1 μCi/reaction [γ-^33P] ATP (Amersham) (about 1×10^5 cpm), 1 μM ATP (Sigma), 1 mM DTT (Sigma), 2 mM MgCl2 (Sigma), 2 mM MnCl2 (Sigma), 10 mM NaF (Sigma), 25 mM Hepes (Sigma) buffer, pH 7.6 and 20 μL enzyme solution and 10 μL inhibitor in a final volume of 50 μL. After incubation at 25° C. for 30 min, 150 μL resin (Dowex anion-exchange resin AG1X8 200-400 mesh) in 900 mM formate, pH 3.0 was added to each well to stop the reaction. Resin was allowed to settle for 1 h and 50 μL of supernatant was removed to a Micolite-2 flat bottom plate (Dynex). […]

Structure (SMILES) | IC50
NC(=O)Nc1cn(-c2ccc(-c3ccccc3O)c(F)c2)nc1C(N)=O [Example 261, 4-[(aminocarbonyl)amino]-1-(2-fluoro-2′-hydroxy-1,1′-biphenyl-4-yl)-1H-pyrazole-3-carboxamide] | 1.18 µM
CS(=O)(=O)Nc1ccc(-c2cccc(-n3cc(NC(N)=O)c(C(N)=O)n3)c2)cc1 [Example 59, 4-[(aminocarbonyl)amino]-1-{4′-[(methylsulfonyl)amino]-1,1′-biphenyl-3-yl}-1H-pyrazole-3-carboxamide] | 1.64 µM
NC(=O)Nc1nn(-c2ccc(-c3cc(Cl)cc(Cl)c3)cc2)cc1C(N)=O [Example 137] | > 20 µM
NC(=O)Nc1cn(-c2cccc(-c3ccccc3OCc3ccccc3)c2)nc1C(N)=O [Example 86, 4-[(aminocarbonyl)amino]-1-[2′-(benzyloxy)-1,1′-biphenyl-3-yl]-1H-pyrazole-3-carboxamide] | 5.91 µM
CC(C)Cc1ccc(-c2ccc(-n3cc(C(N)=O)c(NC(N)=O)n3)cc2)cc1 [Example 127] | > 20 µM
NC(=O)Nc1nn(-c2ccc(-c3ccc(C4CCCCC4)cc3)cc2)cc1C(N)=O [Example 140] | > 20 µM
NC(=O)Nc1cn(-c2ccc(-c3cc(F)ccc3OCC(=O)O)cc2)nc1C(N)=O [Example 259, [(4′-{3-(aminocarbonyl)-4-[(aminocarbonyl)amino]-1H-pyrazol-1-yl}-5-fluoro-1,1′-biphenyl-2-yl)oxy]acetic acid] | 4.01 µM
COc1cc(-c2cccc(-n3cc(NC(N)=O)c(C(N)=O)n3)c2)c(Cl)cn1 [Example 14, trifluoroacetate] | 8.95 µM
N#C/C=C/c1cccc(-c2ccc(-n3cc(NC(N)=O)c(C(N)=O)n3)cc2)c1 [Example 32, 4-[(aminocarbonyl)amino]-1-{3′-[(E)-2-cyanovinyl]-1,1′-biphenyl-4-yl}-1H-pyrazole-3-carboxamide] | 1.16 µM
CC(C)Cc1ccc(-c2cccc(-n3cc(NC(N)=O)c(C(N)=O)n3)c2)cc1 [Example 363, 4-[(aminocarbonyl)amino]-1-(4′-isobutyl-1,1′-biphenyl-3-yl)-1H-pyrazole-3-carboxamide] | > 20 µM
Cc1cc(-n2cc(NC(N)=O)c(C(N)=O)n2)ccc1-c1cc(F)ccc1O [Example 242, 1-(5′-Fluoro-2′-hydroxy-2-methyl-biphenyl-4-yl)-4-ureido-1H-pyrazole-3-carboxylic acid amide] | 1.35 µM
Cc1cc(-c2cccc(-n3cc(NC(N)=O)c(C(N)=O)n3)c2)ccc1F [Example 346, 4-[(aminocarbonyl)amino]-1-(4′-fluoro-3′-methyl-1,1′-biphenyl-3-yl)-1H-pyrazole-3-carboxamide] | > 20 µM
NC(=O)Nc1cn(-c2cccc(-c3cccc(Cl)c3)c2)nc1C(N)=O [Example 347, 4-[(aminocarbonyl)amino]-1-(3′-chloro-1,1′-biphenyl-3-yl)-1H-pyrazole-3-carboxamide] | > 20 µM
NC(=O)Nc1cn(-c2cccc(-c3ccccc3O)c2)nc1C(N)=O [Example 71, 4-[(aminocarbonyl)amino]-1-(2′-hydroxy-1,1′-biphenyl-3-yl)-1H-pyrazole-3-carboxamide] | 2.25 µM

Further compounds by falling IC50, results first:

IC50 | Structure (SMILES)
1.15 µM | NC(=O)Nc1cn(-c2ccc(-c3ccccc3O)c(Cl)c2)nc1C(N)=O [Example 223, 4-[(aminocarbonyl)amino]-1-(2-chloro-2′-hydroxy-1,1′-biphenyl-4-yl)-1H-pyrazole-3-carboxamide]
1.04 µM | CC(=O)Nc1ccc(-c2cccc(-n3cc(NC(N)=O)c(C(N)=O)n3)c2)cc1 [Example 55, 1-[4′-(acetylamino)-1,1′-biphenyl-3-yl]-4-[(aminocarbonyl)amino]-1H-pyrazole-3-carboxamide]
0.842 µM | NC(=O)Nc1cn(-c2ccc(-c3ccc(F)cc3O)c(F)c2)nc1C(N)=O [Example 262, 4-[(aminocarbonyl)amino]-1-(2,4′-difluoro-2′-hydroxy-1,1′-biphenyl-4-yl)-1H-pyrazole-3-carboxamide]
0.651 µM | COc1cccc(-c2ccc(-n3cc(NC(N)=O)c(C(N)=O)n3)cc2)c1 [Example 107, 4-[(aminocarbonyl)amino]-1-(3′-methoxy-1,1′-biphenyl-4-yl)-1H-pyrazole-3-carboxamide]
0.595 µM | COc1ccc(CNC(=O)c2nn(-c3cccc(O)c3)cc2NC(N)=O)cc1 [Example 299, 1-(3-hydroxy-phenyl)-4-ureido-1H-pyrazole-3-carboxylic acid 4-methoxy-benzylamide]
0.51 µM | N#CCOc1cccc(-c2ccc(-n3cc(NC(N)=O)c(C(N)=O)n3)c(F)c2)c1 [Example 179, 4-[(aminocarbonyl)amino]-1-[3′-(cyanomethoxy)-3-fluoro-1,1′-biphenyl-4-yl]-1H-pyrazole-3-carboxamide]
0.44 µM | NC(=O)Nc1cn(-c2cccc(-c3cccc(O)c3)c2)nc1C(N)=O [Example 72, 4-[(aminocarbonyl)amino]-1-(3′-hydroxy-1,1′-biphenyl-3-yl)-1H-pyrazole-3-carboxamide]
0.355 µM | NC(=O)Nc1nn(-c2ccc(-c3ccc(F)cc3F)cc2)cc1C(N)=O [Example 113]
0.327 µM | N#CCOc1ccccc1-c1ccc(-n2cc(NC(N)=O)c(C(N)=O)n2)cc1Cl [Example 224, 4-[(aminocarbonyl)amino]-1-[2-chloro-2′-(cyanomethoxy)-1,1′-biphenyl-4-yl]-1H-pyrazole-3-carboxamide]
0.3 µM | Cc1ccc(-n2cc(NC(N)=O)c(C(N)=O)n2)cc1 [Example 18, 4-[(aminocarbonyl)amino]-1-(4-methylphenyl)-1H-pyrazole-3-carboxamide]
0.26 µM | COc1ccccc1CNC(=O)c1ccc(-c2ccc(-n3cc(NC(N)=O)c(C(N)=O)n3)cc2)cc1F [Example 154, 4-[(aminocarbonyl)amino]-1-(3′-fluoro-4′-{[(2-methoxybenzyl)amino]carbonyl}-1,1′-biphenyl-4-yl)-1H-pyrazole-3-carboxamide]
